Reference: ChEMBL document CHEMBL3351407, “Synthesis of novel pyrazole–thiadiazole hybrid as potential potent and selective cyclooxygenase-2 (COX-2) inhibitors” (Bioorg Med Chem Lett, 2014)

Key:
[1] = target: T1, Prostaglandin G/H synthase 1 (Ovis aries, UniProt P05979); experiment: Inhibition of ovine COX1
T1 sequence (P05979 whole entry): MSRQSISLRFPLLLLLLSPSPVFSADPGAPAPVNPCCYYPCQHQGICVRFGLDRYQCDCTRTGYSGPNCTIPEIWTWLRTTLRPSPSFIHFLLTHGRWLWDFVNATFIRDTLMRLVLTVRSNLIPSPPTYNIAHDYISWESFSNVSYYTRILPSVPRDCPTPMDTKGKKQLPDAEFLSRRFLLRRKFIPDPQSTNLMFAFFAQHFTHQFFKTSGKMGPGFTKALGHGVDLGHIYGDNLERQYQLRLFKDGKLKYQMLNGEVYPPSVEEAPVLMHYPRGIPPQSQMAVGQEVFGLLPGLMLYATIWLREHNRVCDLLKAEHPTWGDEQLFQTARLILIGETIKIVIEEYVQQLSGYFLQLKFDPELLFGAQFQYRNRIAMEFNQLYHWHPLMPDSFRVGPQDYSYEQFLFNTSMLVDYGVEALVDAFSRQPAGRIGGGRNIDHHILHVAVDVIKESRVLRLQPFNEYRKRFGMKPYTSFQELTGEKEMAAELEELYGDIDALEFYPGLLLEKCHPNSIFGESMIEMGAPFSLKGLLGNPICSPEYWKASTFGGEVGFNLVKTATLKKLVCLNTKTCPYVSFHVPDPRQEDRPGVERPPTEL

[2] = Cytotoxicity against HDF cells assessed as cell viability at 100 uM by MTT assay; type: cell-based; conditions: human, read-out: Activity

IC50 [1]	SMILES	viability at 100 µM [2]
70.3 µM	CC(=O)NC1=NN(C(C)=O)C(c2cn(-c3ccccc3)nc2-c2ccc(Cl)cc2)S1 (stereo unspecified)	57.7%
71.3 µM	COc1ccc(-c2nn(-c3ccccc3)cc2/C=N\NC2=NC(=O)CS2)cc1	59.7%
60.7 µM	O=C1CSC(N/N=C\c2cn(-c3ccccc3)nc2-c2ccc(Cl)cc2)=N1	58.7%
80.3 µM	COc1ccc(-c2nn(-c3ccccc3)cc2C2SC(NC(C)=O)=NN2C(C)=O)cc1 (stereo unspecified)	56.7%
60.3 µM	NC(=S)N/N=C\c1cn(-c2ccccc2)nc1-c1ccc(Br)cc1	57.6%
42.3 µM	COc1ccc(-c2nn(-c3ccccc3)cc2/C=N\NC(=S)Nc2ccccc2)cc1	52.6%
62.3 µM	COc1ccc(-c2nn(-c3ccccc3)cc2/C=N\N=C2\SCC(=O)N2c2ccccc2)cc1	63.4%
70.3 µM	CC(=O)N(C1=NN(C(C)=O)C(c2cn(-c3ccccc3)nc2-c2ccc(Cl)cc2)S1)c1ccccc1 (stereo unspecified)	61.7%
64.5 µM	S=C(N/N=C\c1cn(-c2ccccc2)nc1-c1ccc(Cl)cc1)Nc1ccccc1	61.7%
62.3 µM	COc1ccc(-c2nn(-c3ccccc3)cc2/C=N\NC(N)=S)cc1	63.4%
65.7 µM	S=C(N/N=C\c1cn(-c2ccccc2)nc1-c1ccc(Br)cc1)Nc1ccccc1	58.7%
64.7 µM	CC(=O)NC1=NN(C(C)=O)C(c2cn(-c3ccccc3)nc2-c2ccc(Br)cc2)S1 (stereo unspecified)	51.6%
62.3 µM	O=C1CS/C(=N/N=C\c2cn(-c3ccccc3)nc2-c2ccc(Cl)cc2)N1c1ccccc1	60.7%
72.7 µM	CC(=O)N(C1=NN(C(C)=O)C(c2cn(-c3ccccc3)nc2-c2ccc(Br)cc2)S1)c1ccccc1 (stereo unspecified)	51.4%
64.7 µM	COc1ccc(-c2nn(-c3ccccc3)cc2C2SC(N(C(C)=O)c3ccccc3)=NN2C(C)=O)cc1 (stereo unspecified)	61.4%
60.5 µM	O=C1CS/C(=N/N=C\c2cn(-c3ccccc3)nc2-c2ccc(Br)cc2)N1c1ccccc1	57.4%
66.3 µM	O=C1CSC(N/N=C\c2cn(-c3ccccc3)nc2-c2ccc(Br)cc2)=N1	55.6%
56.3 µM	NC(=S)N/N=C\c1cn(-c2ccccc2)nc1-c1ccc(Cl)cc1	71.7%
